Holding throughout (format): cell-based
In assay [1] the target is TRPML1 (Homo sapiens, UniProt Q9GZU1). Put plainly: Fluorescent TRPML1 assay (Fluo4-AM calcium fluorescence in doxycycline-induced HEK-293 Trex cells). The method in brief:
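HEK-293 Trex cells stably carrying human TRPML1 (surface-trafficking mutant) were induced overnight with 0.5 ug/mL doxycycline, loaded with 1 micromolar Fluo4-AM, and suspended in Ringer's with 10 mM calcium. Compounds at 20 micromolar to 6 nanomolar final, half-log steps, triplicate; fluorescence 480/540 nm gave percent activity versus controls and EC50 by non-linear regression.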

The target in assay [2] is T1, TRPML2 (Homo sapiens, UniProt Q8IZK6).
T1 construct: expressed in transfected cells
T1 sequence (Q8IZK6 1-566): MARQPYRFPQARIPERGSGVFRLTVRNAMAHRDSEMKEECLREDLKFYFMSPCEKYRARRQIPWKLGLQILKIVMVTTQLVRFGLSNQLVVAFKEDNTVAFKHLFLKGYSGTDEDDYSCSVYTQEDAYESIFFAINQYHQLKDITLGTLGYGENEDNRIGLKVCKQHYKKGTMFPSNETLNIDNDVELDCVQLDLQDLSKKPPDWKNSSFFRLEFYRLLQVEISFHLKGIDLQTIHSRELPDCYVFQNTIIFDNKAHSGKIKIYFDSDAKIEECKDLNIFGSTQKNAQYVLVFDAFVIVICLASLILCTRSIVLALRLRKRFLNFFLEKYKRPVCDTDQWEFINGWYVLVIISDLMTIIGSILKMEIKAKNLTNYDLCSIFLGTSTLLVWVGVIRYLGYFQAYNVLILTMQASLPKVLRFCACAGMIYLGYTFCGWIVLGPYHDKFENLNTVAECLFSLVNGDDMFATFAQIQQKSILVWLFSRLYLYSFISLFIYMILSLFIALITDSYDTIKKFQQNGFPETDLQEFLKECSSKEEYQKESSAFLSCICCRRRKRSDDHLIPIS
Put plainly: Fluorescent TRPML2 assay (performed as for TRPML1, substituting the TRPML2 subtype). The method in brief:
(§1)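 Compound series (final 6 nM-20 μM, half-log, triplicate) were added to Fluo4-AM-loaded HEK-293 Trex cells in 10 mM calcium Ringer's, expressing the human TRPML subtype after doxycycline 0.5 ug/mL induction. Percent activity versus positive/negative controls from 480/540 nm fluorescence; EC50 by non-linear regression.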

The target of assay [3] is T2, TRPML3 (Homo sapiens, UniProt Q8TDD5).
T2 construct: expressed in transfected cells
T2 sequence (Q8TDD5 1-553): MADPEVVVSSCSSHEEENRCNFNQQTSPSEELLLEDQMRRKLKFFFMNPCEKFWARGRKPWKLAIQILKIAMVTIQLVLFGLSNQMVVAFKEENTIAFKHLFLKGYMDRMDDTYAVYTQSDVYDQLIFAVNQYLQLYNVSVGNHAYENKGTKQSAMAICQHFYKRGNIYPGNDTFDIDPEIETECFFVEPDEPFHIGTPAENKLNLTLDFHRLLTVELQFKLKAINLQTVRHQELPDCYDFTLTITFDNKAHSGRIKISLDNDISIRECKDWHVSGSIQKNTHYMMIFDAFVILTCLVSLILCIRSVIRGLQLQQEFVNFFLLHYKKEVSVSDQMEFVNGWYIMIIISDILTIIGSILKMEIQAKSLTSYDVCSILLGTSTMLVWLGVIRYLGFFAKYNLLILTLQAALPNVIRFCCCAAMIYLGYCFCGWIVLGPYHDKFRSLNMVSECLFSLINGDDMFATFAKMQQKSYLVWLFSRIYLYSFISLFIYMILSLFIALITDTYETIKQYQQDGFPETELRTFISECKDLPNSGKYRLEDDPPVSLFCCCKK
Put plainly: Fluorescent TRPML3 assay (performed as for TRPML1, substituting the TRPML3 subtype). The method in brief: as §1

As a reminder, the EC50 is the midpoint of the concentration-response curve.

Sequence of TRPML1 (Q9GZU1 whole entry L15A/L16A/L577A/L578A, form open): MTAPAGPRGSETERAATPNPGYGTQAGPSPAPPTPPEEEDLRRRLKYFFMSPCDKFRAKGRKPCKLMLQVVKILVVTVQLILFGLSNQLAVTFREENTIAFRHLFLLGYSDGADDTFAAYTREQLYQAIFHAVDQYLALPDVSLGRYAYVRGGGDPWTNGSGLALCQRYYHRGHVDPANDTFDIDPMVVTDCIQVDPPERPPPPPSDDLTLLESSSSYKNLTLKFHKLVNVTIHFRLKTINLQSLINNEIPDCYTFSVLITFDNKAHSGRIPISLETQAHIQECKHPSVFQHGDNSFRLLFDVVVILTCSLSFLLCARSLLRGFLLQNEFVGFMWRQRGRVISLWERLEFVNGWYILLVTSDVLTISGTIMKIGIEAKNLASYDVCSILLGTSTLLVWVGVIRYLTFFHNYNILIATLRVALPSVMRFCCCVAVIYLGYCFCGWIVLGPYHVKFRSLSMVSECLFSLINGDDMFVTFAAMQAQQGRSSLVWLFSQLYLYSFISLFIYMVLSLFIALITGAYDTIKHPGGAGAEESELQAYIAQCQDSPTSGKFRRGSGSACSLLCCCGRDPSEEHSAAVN

Consider `C[C@@H]1CN(c2ncnc3c2c(C(F)(F)F)cn3-c2cc(F)ccn2)[C@@H](C)CN1C(=O)OC(C)(C)C` [Compound 505, tert-butyl (2R,5S)-4-(7-(4-fluoropyridin-2-yl)-5-(trifluoromethyl)-7H-pyrrolo[2,3-d]pyrimidin-4-yl)-2,5-dimethylpiperazine-1-carboxylate], for which the EC50 was less than 100 nM in assay [1], more than 2000 nM in assay [2] and less than 100 nM in assay [3].
In the case of `C[C@@H]1CN(c2ncnc3c2c(C(F)(F)F)cn3-c2cc(Cl)ccn2)[C@@H](C)CN1C(=O)OC(C)(C)C` [Compound 506, tert-butyl (2R,5S)-4-(7-(4-chloropyridin-2-yl)-5-(trifluoromethyl)-7H-pyrrolo[2,3-d]pyrimidin-4-yl)-2,5-dimethylpiperazine-1-carboxylate], the figures for the EC50 in assay [1], in assay [2] and in assay [3] were less than 100 nM, 500 to 2000 nM and less than 100 nM, respectively.
As for `CCCOc1cn(-c2cc(C#N)ccn2)c2ncnc(N3C[C@@H](C)N(C(=O)OC(C)(C)C)C[C@@H]3C)c12` [Compound 507, tert-butyl (2R,5S)-4-(7-(4-cyanopyridin-2-yl)-5-propoxy-7H-pyrrolo[2,3-d]pyrimidin-4-yl)-2,5-dimethylpiperazine-1-carboxylate], the EC50 in assay [1], in assay [2] and in assay [3] was less than 100 nM in each case.
Regarding `C[C@@H]1CN(c2ncnc3c2c(C(F)(F)F)cn3-c2cc(C#N)ncn2)[C@@H](C)CN1C(=O)OC(C)(C)C` [Compound 509, tert-butyl (2R,5S)-4-(7-(6-cyanopyrimidin-4-yl)-5-(trifluoromethyl)-7H-pyrrolo[2,3-d]pyrimidin-4-yl)-2,5-dimethylpiperazine-1-carboxylate], the EC50 in assay [1], in assay [2] and in assay [3] was less than 100 nM in each case.
As to `C[C@@H]1CN(c2ncnc3c2c(C(F)(F)F)cn3-c2nccc(C#N)n2)[C@@H](C)CN1C(=O)OC(C)(C)C` [Compound 510, tert-butyl (2R,5S)-4-(7-(4-cyanopyrimidin-2-yl)-5-(trifluoromethyl)-7H-pyrrolo[2,3-d]pyrimidin-4-yl)-2,5-dimethylpiperazine-1-carboxylate], the results for the EC50 in assay [1], in assay [2] and in assay [3] were 100 to 500 nM, more than 2000 nM and less than 100 nM, respectively.
The like results for `C[C@@H]1CN(c2ncnc3c2c(C(F)F)cn3-c2cc(C#N)ccn2)CCN1C(=O)OC(C)(C)C` [Compound 511, tert-butyl (R)-4-(7-(4-cyanopyridin-2-yl)-5-(difluoromethyl)-7H-pyrrolo[2,3-d]pyrimidin-4-yl)-2-methylpiperazine-1-carboxylate] were, in that order, less than 100 nM, less than 100 nM and less than 100 nM.
The like results for `CCC(CC)OC(=O)N1C[C@H](C)N(c2ncnc3c2c(C(F)(F)F)cn3-c2cc(C#N)ccn2)C[C@H]1C` [Compound 512, pentan-3-yl (2R,5S)-4-(7-(4-cyanopyridin-2-yl)-5-(trifluoromethyl)-7H-pyrrolo[2,3-d]pyrimidin-4-yl)-2,5-dimethylpiperazine-1-carboxylate] were, in that order, less than 100 nM, 100 to 500 nM and less than 100 nM.
The like results for `C[C@@H]1CN(c2ncnc3c2c(C(F)(F)F)cn3-c2cccc(C#N)c2)[C@@H](C)CN1C(=O)OC(C)(C)C` [Compound 513, tert-butyl (2R,5S)-4-(7-(3-cyanophenyl)-5-(trifluoromethyl)-7H-pyrrolo[2,3-d]pyrimidin-4-yl)-2,5-dimethylpiperazine-1-carboxylate] were, in that order, less than 100 nM, 500 to 2000 nM and less than 100 nM.
As to `C[C@H]1CN(C(=O)OC(C)(C)C)CCN1c1ncnc2c1c(C(F)F)cn2-c1cc(C#N)ccn1` [Compound 514, tert-butyl (S)-4-(7-(4-cyanopyridin-2-yl)-5-(difluoromethyl)-7H-pyrrolo[2,3-d]pyrimidin-4-yl)-3-methylpiperazine-1-carboxylate], the EC50 in assay [1], in assay [2] and in assay [3] was less than 100 nM each time.
As to `C[C@@H]1CN(c2ncnc3c2c(C(F)(F)F)cn3-c2cc(C#N)ccn2)[C@@H](C)CN1C(=O)OC1CCC1` [Compound 516, cyclobutyl (2R,5S)-4-(7-(4-cyanopyridin-2-yl)-5-(trifluoromethyl)-7H-pyrrolo[2,3-d]pyrimidin-4-yl)-2,5-dimethylpiperazine-1-carboxylate], the EC50 in assay [1], in assay [2] and in assay [3] was less than 100 nM each time.
On to `Cc1cc(C#N)cc(-n2cc(C(F)(F)F)c3c(N4C[C@@H](C)N(C(=O)OC(C)(C)C)C[C@@H]4C)ncnc32)n1` [Compound 517, tert-butyl (2R,5S)-4-(7-(4-cyano-6-methylpyridin-2-yl)-5-(trifluoromethyl)-7H-pyrrolo[2,3-d]pyrimidin-4-yl)-2,5-dimethylpiperazine-1-carboxylate], for which the values for the 50% effective concentration (EC50) in assay [1], in assay [2] and in assay [3] were less than 100 nM, 100 to 500 nM and less than 100 nM, respectively.
`[2H]C([2H])([2H])C(OC(=O)N1C[C@H](C)N(c2ncnc3c2c(C(F)(F)F)cn3-c2cc(C#N)ccn2)C[C@H]1C)(C([2H])([2H])[2H])C([2H])([2H])[2H]` [Compound 518, 2-(methyl-d3)propan-2-yl-1,1,1,3,3,3-d6 (2R,5S)-4-(7-(4-cyanopyridin-2-yl)-5-(trifluoromethyl)-7H-pyrrolo[2,3-d]pyrimidin-4-yl)-2,5-dimethylpiperazine-1-carboxylate]: the EC50 in assay [1], in assay [2] and in assay [3] was less than 100 nM each time.
In the case of `C[C@@H]1CN(c2ncnc3c2c(C(F)(F)F)cn3-c2cc(C#N)ccn2)[C@@H](C)CN1C(=O)OC1(C)CC1` [Compound 519, 1-methylcyclopropyl (2R,5S)-4-(7-(4-cyanopyridin-2-yl)-5-(trifluoromethyl)-7H-pyrrolo[2,3-d]pyrimidin-4-yl)-2,5-dimethylpiperazine-1-carboxylate], the EC50 in assay [1] was less than 100 nM; in assay [2], 100 to 500 nM; in assay [3], less than 100 nM.
Regarding `C[C@@H]1CN(c2ncnc3c2c(C(F)F)cn3-c2cc(C#N)ccn2)[C@@H](C)CN1C(=O)OC(C)(C)C` [Compound 520, tert-butyl (2R,5S)-4-(7-(4-cyanopyridin-2-yl)-5-(difluoromethyl)-7H-pyrrolo[2,3-d]pyrimidin-4-yl)-2,5-dimethylpiperazine-1-carboxylate], the EC50 in assay [1] was less than 100 nM; in assay [2], 100 to 500 nM; in assay [3] it was less than 100 nM.
For `C[C@@H]1CN(c2ncnc3c2c(OC(F)F)cn3-c2cc(Cl)ccn2)[C@@H](C)CN1C(=O)OC(C)(C)C` [Compound 521, tert-butyl (2R,5S)-4-(7-(4-chloropyridin-2-yl)-5-(difluoromethoxy)-7H-pyrrolo[2,3-d]pyrimidin-4-yl)-2,5-dimethylpiperazine-1-carboxylate], the values for the EC50 in assay [1], in assay [2] and in assay [3] were less than 100 nM, 500 to 2000 nM and less than 100 nM, respectively.
On to `C[C@H]1CN(C(=O)OC(C)(C)C)CCN1c1ncnc2c1c(N(C)C1CC1)cn2-c1cccc(Cl)c1` [Compound 522, tert-butyl (S)-4-(7-(3-chlorophenyl)-5-(cyclopropyl(methyl)amino)-7H-pyrrolo[2,3-d]pyrimidin-4-yl)-3-methylpiperazine-1-carboxylate], for which the results for the EC50 in assay [1], in assay [2] and in assay [3] were 100 to 500 nM, 100 to 500 nM and less than 100 nM, respectively.
In the case of `C[C@@H]1CN(c2ncnc3c2c(OC(F)F)cn3-c2cc(C#N)ccn2)[C@@H](C)CN1C(=O)OC(C)(C)C` [Compound 523, tert-butyl (2R,5S)-4-(7-(4-cyanopyridin-2-yl)-5-(difluoromethoxy)-7H-pyrrolo[2,3-d]pyrimidin-4-yl)-2,5-dimethylpiperazine-1-carboxylate], the EC50 in assay [1], in assay [2] and in assay [3] was less than 100 nM in each case.

The values above are taken from US20250136606A1, “MODULATORS OF TRPML, THEIR COMPOSITIONS AND METHODS OF USE” (Caraway Therapeutics, Inc., priority 2021, published 2025).
